In paper PMC5942189 (Journal of the American Chemical Society, 2018) one finds MIC data, which are given here for three substances.

Test [1] concerns multi-drug-resistant Acinetobacter baumannii (Ab) 5075. The test is described as follows: MIC determination in Mueller-Hinton broth, A. baumannii 5075. The class given is cell-based. To be noted: multi-drug-resistant A. baumannii Ab5075; standard Mueller-Hinton broth assay.
The test system of test [2] is E. coli WD101 (isogenic CAMP-resistant mutant, colistin-resistant). In words: MIC determination in Mueller-Hinton broth, E. coli WD101. The class given is cell-based, Escherichia coli. Particulars: standard Mueller-Hinton broth assay.
Test [3] concerns Escherichia coli W3110 (wild-type). The test is described as follows: MIC determination in Mueller-Hinton broth, E. coli W3110. It counts as cell-based. Particulars: standard Mueller-Hinton broth assay.

What is called MIC is the least concentration at which growth counts as inhibited. A high value points to weaker potency.

As to “N-XTRSSRAGLQFPVGRVHRLLRXK-C [DiHy buforin]”, the minimum inhibitory concentration (MIC) in test [1] was 64 µM.

With “N-XTRSSRAGLQFPXVGRVHRLLRXK-C [TriAl buforin]”, the MIC in test [1] was determined as 64 µM. For the substance “N-AlTRSSRAGLQFPVGRVHRLLRKF-Hy (sidechain bridge or staple) [HyRes buforin]”, the minimum inhibitory concentration (MIC) amounted to 16 µM in test [2], 4 µM in test [1] and 8 µM in test [3].
